Results from the NIST ThermoML archive (doi:10.1016/j.jct.2017.12.023).

Tests used:
[1] = Liquid; for viscosity / mass density: 100 kPa; for viscosity: Concentric cylinders viscometry; for mass density: Vibrating tube method; for thermal conductivity: 101.33 kPa, transient hot wire
[2] = refractive index (Na D-line) (dimensionless); conditions: 100 kPa, Liquid, Standard Abbe refractometry
[3] = refractive index (Na D-line) (dimensionless); xn = mol fraction of the nth substance listed; conditions: 100 kPa, Liquid, Standard Abbe refractometry, x2 = 0
[4] = xn = mol fraction of the nth substance listed; conditions: 100 kPa, Liquid, x2 = 0; for viscosity: Concentric cylinders viscometry; for mass density: Vibrating tube method

CCCCCCO [hexan-1-ol]
Conditions	mass density, [1] [kg/m3]	refractive index, [2]	viscosity, [1] [mPa·s]
288.15 K	822.26	1.41986	6.297
293.15 K	818.69	1.4179	5.324
298.15 K	815.11	1.41591	4.53
303.15 K	811.51	1.41386	3.889
308.15 K	807.88	1.41182	3.355
313.15 K	804.23	1.40981	2.912
318.15 K	800.56	1.40779	2.541
323.15 K	796.85	1.40574	2.251

CN1CCCC1=O [N-methylpyrrolidone] + CCOS(=O)(=O)[O-].CCn1cc[n+](C)c1
Conditions	mass density, [4] [kg/m3]	refractive index, [3]	viscosity, [4] [mPa·s]
288.15 K	1037.3	1.47166	1.99
293.15 K	1032.84	1.46952	1.823
298.15 K	1028.38	1.46736	1.679
303.15 K	1023.93	1.4652	1.555
308.15 K	1019.46	1.46306	1.444
313.15 K	1015	1.46095	1.346
318.15 K	1010.53	1.45891	1.259
323.15 K	1006.06	1.4568	1.182
328.15 K	1001.58	1.45473	1.11
333.15 K	997.1	1.45267	1.043

CCOS(=O)(=O)[O-].CCn1cc[n+](C)c1 [1-ethyl-3-methylimidazolium ethyl sulfate]
Conditions	mass density, [1] [kg/m3]	refractive index, [2]	thermal conductivity, [1] [W/m/K]	viscosity, [1] [mPa·s]
288.15 K	1243.07	1.48155	–	155.55
293.15 K	1239.66	1.48018	–	117.88
298.15 K	1236.27	1.47882	–	91.26
303.15 K	1232.87	1.47746	0.1808	72.1
308.15 K	1229.49	1.47611	0.18	57.98
313.15 K	1226.13	1.47474	0.1795	47.26
318.15 K	1222.79	1.47341	0.1787	39.25
323.15 K	1219.46	1.47206	0.178	32.94
328.15 K	1216.16	1.47075	–	27.96
333.15 K	1212.86	1.46943	–	24.09

CCCCCCO [hexan-1-ol] + CCOS(=O)(=O)[O-].CCn1cc[n+](C)c1
Conditions	mass density, [4] [kg/m3]	refractive index, [3]	viscosity, [4] [mPa·s]
288.15 K	822.26	1.41986	6.297
293.15 K	818.69	1.4179	5.324
298.15 K	815.11	1.41591	4.53
303.15 K	811.51	1.41386	3.889
308.15 K	807.88	1.41182	3.355
313.15 K	804.23	1.40981	2.912
318.15 K	800.56	1.40779	2.541
323.15 K	796.85	1.40574	2.251
